What was measured:
Details in all cases: 72 h
Caco-2 [1] = experiment: cell viability relative to DMSO; higher = less toxic
Calu-3 [2] = experiment: as above
HepG2 [3] = experiment: as above
U2OS [4] = experiment: as above
Vero E6 [5] = experiment: as above
Caco-2 [6] = experiment: relative viability EC50 (midpoint between 100% and the lowest measured viability); higher = less toxic
Calu-3 [7] = experiment: as above
HepG2 [8] = experiment: as above
U2OS [9] = experiment: as above
Vero E6 [10] = experiment: as above
Caco-2 [11] = experiment: drug sensitivity score (DSS) for viability; higher = more toxic; extreme values may be limits of the assay
Calu-3 [12] = experiment: as above
HepG2 [13] = experiment: as above
U2OS [14] = experiment: as above
Vero E6 [15] = experiment: as above

SMILES | cell viability (Caco-2 [1]; 1 nM) | cell viability (Caco-2 [1]; 10 nM) | cell viability (Caco-2 [1]; 100 nM) | cell viability (Caco-2 [1]; 1000 nM) | cell viability (Caco-2 [1]; 10000 nM) | cell viability (Calu-3 [2]; 1 nM) | cell viability (Calu-3 [2]; 10 nM) | cell viability (Calu-3 [2]; 100 nM) | cell viability (Calu-3 [2]; 1000 nM) | cell viability (Calu-3 [2]; 10000 nM) | cell viability (HepG2 [3]; 1 nM) | cell viability (HepG2 [3]; 10 nM) | cell viability (HepG2 [3]; 100 nM) | cell viability (HepG2 [3]; 1000 nM) | cell viability (HepG2 [3]; 10000 nM) | cell viability (U2OS [4]; 1 nM) | cell viability (U2OS [4]; 10 nM) | cell viability (U2OS [4]; 100 nM) | cell viability (U2OS [4]; 1000 nM) | cell viability (U2OS [4]; 10000 nM) | cell viability (Vero E6 [5]; 1 nM) | cell viability (Vero E6 [5]; 10 nM) | cell viability (Vero E6 [5]; 100 nM) | cell viability (Vero E6 [5]; 1000 nM) | cell viability (Vero E6 [5]; 10000 nM) | relative viability EC50 (Caco-2 [6]) | relative viability EC50 (Calu-3 [7]) | relative viability EC50 (HepG2 [8]) | relative viability EC50 (U2OS [9]) | relative viability EC50 (Vero E6 [10]) | drug sensitivity score (Caco-2 [11]) | drug sensitivity score (Calu-3 [12]) | drug sensitivity score (HepG2 [13]) | drug sensitivity score (U2OS [14]) | drug sensitivity score (Vero E6 [15])
O=C(O)C1=CCCN(CCON=C(c2ccccc2)c2ccccc2)C1 [NNC-711] | 102% | 95.6% | 104% | 96% | 101% | 108% | 100% | 102% | 101% | 98.9% | 93.4% | 100% | 99.1% | 109% | 101% | 98.7% | 95.5% | 103% | 101% | 98.5% | 90.4% | 103% | 101% | 97.4% | 114% | > 10000 nM | > 10000 nM | > 10000 nM | > 10000 nM | > 10000 nM | 0 | 0 | 0 | 0 | 0
COc1cccc(-c2cc(F)ccc2[C@H]2Cc3nc(N)nc(C)c3C(=O)N2)n1 [NVP-HSP990] | 110% | 67.8% | 51.1% | 42.2% | 41% | 108% | 97.1% | 43.5% | 34.4% | 36.2% | 105% | 104% | 0.7% | 0.2% | 0.5% | 102% | 94.9% | 19.3% | 2.5% | 3.2% | 101% | 112% | 47.3% | 27.8% | 26.6% | 9.4 nM | 42.7 nM | 34.3 nM | 44.6 nM | 69.7 nM | 22.6 | 19.3 | 30 | 27.7 | 19.6
COc1cc(Nc2ncc(F)c(Nc3ccc4c(n3)NC(=O)C(C)(C)O4)n2)cc(OC)c1OC [R406] | 96.7% | 102% | 86.9% | 92.1% | 75.5% | 85.3% | 89.8% | 97.6% | 101% | 85.6% | 98.1% | 103% | 102% | 92.1% | 88.8% | 95.8% | 100% | 94.3% | 97.8% | 88.9% | 100% | 99% | 93.8% | 91% | 81.9% | > 10000 nM | > 10000 nM | > 10000 nM | > 10000 nM | > 10000 nM | 1.7 | 0.2 | 0.2 | 0 | 0.9
CC(C)=CC[C@@H](O)C1=CC(=O)c2c(O)ccc(O)c2C1=O [Shikonin] | 99.6% | 103% | 94.3% | 30.6% | 1.1% | 98.7% | 112% | 96.5% | 36.5% | 2% | 102% | 97.5% | 97.4% | 2.2% | -0.3% | 96.9% | 100% | 89.5% | 4.8% | 0.2% | 95.8% | 96.3% | 91.2% | 6.1% | -0.3% | 587 nM | 711 nM | 313 nM | 260 nM | 290 nM | 14.1 | 13 | 18 | 18.9 | 18.3
